From US9617538B2, “Heptamer-type small guide nucleic acids inducing apoptosis of human leukemia cells” (NIIGATA UNIVERSITY OF PHARMACY AND APPLIED LIFE SCIENCE, priority 2011, dated 2017)
{P} = phosphate

Legend:
[1] = test system: human myeloma cell line KMM1; experiment: MTT assay, KMM1; assay type: cell-based; conditions: sgRNA 1 μM, no delivery reagent, 72 hours (3 days), vs sgRNA non-administered group
Protocol: (§1) Each sgRNA (final concentration 1 μM) was added to a 96-well culture plate containing human cancer cell lines (1,000 cells/100 μl medium), without using a reagent for the delivery of the sgRNA into the cells. The cells were then cultured in a 37° C. CO2 incubator. […] Leukemia cells HL60, and myeloma cells KMM1 and RPMI-8226 were used as the human cancer cell lines, and the viable cell count was compared with that of an sgRNA non-administered group. As controls, each sgRNA was introduced to normal cells HEK293, and the same MTT assay was performed. • (1-3) Flow Cytometry Experiment

[2] = test system: human myeloma cell line RPMI-8226; experiment: MTT assay, RPMI-8226; assay type: cell-based; conditions: sgRNA 1 μM, no delivery reagent, 72 hours (3 days), vs sgRNA non-administered group
Protocol: as §1

[3] = test system: human leukemia cell line HL60; experiment: MTT assay, HL60; assay type: cell-based; conditions: sgRNA 1 μM, no delivery reagent, 72 hours (3 days), vs sgRNA non-administered group
Protocol: as §1

[4] = test system: human leukemia cells HL60; experiment: Mouse xenograft experiment; assay type: in vivo, immunodeficient nude mice; conditions: HL60 subcutaneous xenograft; sgRNA 100 μM, 10 μl at transplantation site once daily for 5 days; difference of median survival time vs non-administered or ineffective-sgRNA group
Protocol: 2×10^6 human leukemia cells HL60 were subcutaneously transplanted into immunodeficient nude mice with an extracellular matrix. Each heptamer-type sgRNA (100 μM) was continuously administered to the transplantation site in a dose of 10 μl, once each day for 5 days, and the tumor volume was measured every day. The mice were euthanized upon the tumor volume reaching 1,500 mm^3. The experiment was conducted with groups of 6 to 8 mice, and the difference between the median value of the survival time of each sgRNA administered group and the median value of the survival time of the non-administered group (or a group administered with the ineffective heptamer-type sgRNA) was calculated as the extended lifetime due to the heptamer-type sgRNA. • (2) Results • (2-1) MTT Assay

| Substance | MTT assay (Percentage reduction of viable cells) KMM1 [1] [%] | MTT assay (Percentage reduction of viable cells) RPMI [2] [%] | MTT assay (Percentage reduction of viable cells) HL60 [3] [%] | Mouse xenograft experiment (Extended lifetime) [4] |
| --- | --- | --- | --- | --- |
| Hep1(HAGE): heptamer-type sgRNA 5′-UCUUUCC-3′, phosphorylated at the 5′ and 3′ ends, 2′-O-methylated (all 2'-O-methyl, 5' {P}, 3' {P}, backbone not given here) | 61 | 5 | 91 | – |
| Hep1(MYC): heptamer-type sgRNA 5′-CAGCUCG-3′, phosphorylated at the 5′ and 3′ ends, 2′-O-methylated (all 2'-O-methyl, 5' {P}, 3' {P}, backbone not given here) | 56 | 16 | 90 | – |
| Hep1(bcl-2): heptamer-type sgRNA 5′-GGGCCAG-3′, phosphorylated at the 5′ and 3′ ends, 2′-O-methylated (all 2'-O-methyl, 5' {P}, 3' {P}, backbone not given here) | 0 | 18 | 88 | (+22 days) |
| Hep2(HAGE): heptamer-type sgRNA 5′-UAUAUUU-3′, phosphorylated at the 5′ and 3′ ends, 2′-O-methylated (all 2'-O-methyl, 5' {P}, 3' {P}, backbone not given here) | 72 | 5 | 94 | – |
| Hep2(PKCb): heptamer-type sgRNA 5′-CCGGGGC-3′, phosphorylated at the 5′ and 3′ ends, 2′-O-methylated (all 2'-O-methyl, 5' {P}, 3' {P}, backbone not given here) | 48 | 75 | 93 | – |
| Hep2(bcl-2): heptamer-type sgRNA 5′-GGGGGCG-3′, phosphorylated at the 5′ and 3′ ends, 2′-O-methylated (all 2'-O-methyl, 5' {P}, 3' {P}, backbone not given here) | 24 | 69 | 99 | (+19 days) |
| Hep3(MYC): heptamer-type sgRNA 5′-GCAGCUC-3′, phosphorylated at the 5′ and 3′ ends, 2′-O-methylated (5' {P}, 3' {P}, sugars by position and backbone not given here; 2'-O-methylated) | 67 | 2 | 90 | – |
| Hep5(IRF4): heptamer-type sgRNA 5′-GGGUCCU-3′, phosphorylated at the 5′ and 3′ ends, 2′-O-methylated (5' {P}, 3' {P}, sugars by position and backbone not given here; 2'-O-methylated) | 69 | 6 | 86 | – |
| Hep5(MYC): heptamer-type sgRNA 5′-GCUGCUG-3′, phosphorylated at the 5′ and 3′ ends, 2′-O-methylated (5' {P}, 3' {P}, sugars by position and backbone not given here; 2'-O-methylated) | 72 | 0 | 86 | – |
| Hep5(PRAME): heptamer-type sgRNA 5′-GCUCUGC-3′, phosphorylated at the 5′ and 3′ ends, 2′-O-methylated (5' {P}, 3' {P}, sugars by position and backbone not given here; 2'-O-methylated) | 17 | 54 | 94 | – |
| Hep6(PRAME): heptamer-type sgRNA 5′-UCCAGGU-3′, phosphorylated at the 5′ and 3′ ends, 2′-O-methylated (all 2'-O-methyl, 5' {P}, 3' {P}, backbone not given here) | 15 | 10 | 95 | – |
| Hep7(WT1): heptamer-type sgRNA 5′-CUGCUUU-3′, phosphorylated at the 5′ and 3′ ends, 2′-O-methylated (5' {P}, 3' {P}, sugars by position and backbone not given here; 2'-O-methylated) | 24 | 46 | 98 | – |
| Hep8(FGFR3): heptamer-type sgRNA 5′-AUCUUCA-3′, phosphorylated at the 5′ and 3′ ends, 2′-O-methylated (all 2'-O-methyl, 5' {P}, 3' {P}, backbone not given here) | 78 | 76 | 87 | (+10 days) |
| Hep9(FGFR3): heptamer-type sgRNA 5′-CACCAGC-3′, phosphorylated at the 5′ and 3′ ends, 2′-O-methylated (all 2'-O-methyl, 5' {P}, 3' {P}, backbone not given here) | 79 | 76 | 95 | (+6 days) |
| Hep(YW): heptamer-type sgRNA 5′-GCAUGCG-3′, phosphorylated at the 5′ and 3′ ends, 2′-O-methylated (all 2'-O-methyl, 5' {P}, 3' {P}, backbone not given here) | 59 | 0 | 96 | – |
